The values that follow come from patent US11364248B2 (AMGEN INC., priority 2017, dated 2022).

One experiment deals with Mcl-1/Bim interaction (Homo sapiens (Human), UniProt Q07820). As to the kind of experiment: Cell Free Mcl-1: Bim Affinity Assay (Mcl-1 HTRF). The class given is binding. Conditions: TR-FRET, recombinant human Mcl-1(171-327), biotin-Bim(51-76); read-out: Mel-1 HTRF IC50. As for the experimental part:
Cell Free Mcl-1: Bim Affinity Assay (Mcl-1 HTRF)
The inhibition of the Mcl-1/Bim interaction was measured using a time-resolved fluorescence resonance energy transfer (TR-FRET) assay. The recombinant human Mcl-1 (C-terminally 6×His tagged Mcl-1 containing residues 171-327) was generated at Amgen Inc (Thousand Oaks, Calif.). A biotinylated peptide derived from human Bim (residues 51-76) was purchased from CPC Scientific (San Jose, Calif.). The TR-FRET assay was conducted in a 384-well white OptiPlate™ (PerkinElmer, Waltham, Mass.) in a total volume of 40 μL. The reaction mixture contained 0.1 nM Mcl-1(171-327), 0.05 nM biotin-Bim(51-76), 0.05 nM LANCER Eu-W1024 Anti-6×His (PerkinElmer), 0.072 nM Streptavidin-Xlent (Cisbio, Bedford, Mass.), and serially diluted test compounds in the binding buffer of 20 mM Hepes, pH 7.5, 150 mM NaCl, 0.016 mM Brij©35, and 1 mM dithiothreitol. Test compounds were pre-incubated with Mcl-1(171-327) and biotin-Bim (51-76) for 60 min before addition of the detection mixture (LANCE Eu-W1024 Anti-6×His and Streptavidin-Xlent). The reaction plates were further incubated overnight and then were read on an Envision® multimode reader (PerkinElmer). Fluorescence signals were measured at 620 nm (40-nm bandwidth) and 665 nm (7.5-nm bandwidth) with a 60 μs delay after excitation at 320 nm (75-nm bandwidth). The signal ratio at 665/620 nm corresponded to the Mcl-1/Bim interaction and was used in all data analyses. The IC50 values of test compounds were determined from duplicate data by analyzing competition curves using a four-parameter sigmoidal model in GraphPad Prism (GraphPad Software, San Diego, Calif.) or in Genedata Screener® (Genedata, Basel, Switzerland).
On the technique in general: In TR-FRET formats the signal depends on donor and acceptor labels being close together.

For another experiment, the system named is OPM-2. As to the kind of experiment: Cell Viability Assay (OPM-2 10 FBS). The class given is cell-based, human. The note with it: OPM-2 cells, CellTiter-Glo, read-out: OPM-2 10% FBS IC50 IP. In outline: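 OPM-2 myeloma cells seeded at 3000 cells/well in RPMI 1640 with 10% FBS and exposed to serially diluted compounds for 16 h at 37° C., 5% CO2.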
For orientation: In ATP-based viability assays light output follows the ATP content of the culture.

Where two headings read alike, the source gives them in different places.

Chain of Mcl-1/Bim interaction (Q07820 171-327): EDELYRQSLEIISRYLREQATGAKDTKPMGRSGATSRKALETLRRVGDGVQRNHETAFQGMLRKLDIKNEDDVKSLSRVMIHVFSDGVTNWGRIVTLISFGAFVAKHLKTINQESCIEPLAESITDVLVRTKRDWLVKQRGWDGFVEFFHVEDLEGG

Take `C[C@@H]1[C@@H](C)CCC[C@@H]([C@H]2OC[C@@H](N3CC(Cl)C3)CO2)[C@@H]2CC[C@H]2CN2C[C@@]3(CCCc4cc(Cl)ccc43)COc3ccc(cc32)C(=O)NS1(=O)=O` (single isomer, unassigned) [Example 56]: the values for the IC50 on Mcl-1/Bim interaction and in the experiment with OPM-2 (16 h) were 0.00198 µM and 1.9 µM, respectively.
As to `C[C@@H]1[C@@H](C)CCC[C@@H]([C@H]2OC[C@@H](N3CC(O)C3)CO2)[C@@H]2CC[C@H]2CN2C[C@@]3(CCCc4cc(Cl)ccc43)COc3ccc(cc32)C(=O)NS1(=O)=O` (single isomer, unassigned) [Example 61], the IC50 (in general, the concentration that gives 50% inhibition) was determined as 0.000455 µM on Mcl-1/Bim interaction and 1.01 µM in the experiment with OPM-2 (16 h).
Take `C[C@@H]1[C@@H](C)CCC[C@@H]([C@H]2OC[C@@H](N3CC(O)C3)CO2)[C@@H]2CC[C@H]2CN2C[C@@]3(CCCc4cc(Cl)ccc43)COc3ccc(cc32)C(=O)NS1(=O)=O` (single isomer, unassigned) [Example 62]: the figures for the IC50 at Mcl-1/Bim interaction and in the experiment with OPM-2 (16 h) were 0.00208 µM and 4.47 µM, respectively.
Take `C[C@@H]1[C@@H](C)CCC[C@@H]([C@H]2OC[C@@H](N3CCC3(C)C)CO2)[C@@H]2CC[C@H]2CN2C[C@@]3(CCCc4cc(Cl)ccc43)COc3ccc(cc32)C(=O)NS1(=O)=O` (single isomer, unassigned) [Example 63]: the figures for the IC50 on Mcl-1/Bim interaction and in the experiment on OPM-2 (16 h) were 0.00206 µM and 1.15 µM, respectively.
As for `C[C@@H]1[C@@H](C)CCC[C@@H]([C@H]2OC[C@@H](N3CCC3(C)C)CO2)[C@@H]2CC[C@H]2CN2C[C@@]3(CCCc4cc(Cl)ccc43)COc3ccc(cc32)C(=O)NS1(=O)=O` (single isomer, unassigned) [Example 64], the IC50 turned out to be 0.0049 µM at Mcl-1/Bim interaction and 7.49 µM in the experiment on OPM-2 (16 h).
Take `C[C@@H]1[C@@H](C)CCCC(C2OCC(N)(CO)CO2)[C@@H]2CC[C@H]2CN2C[C@@]3(CCCc4cc(Cl)ccc43)COc3ccc(cc32)C(=O)NS1(=O)=O` (single isomer, unassigned) [Example 80]: the results for the half-inhibitory concentration (IC50) at Mcl-1/Bim interaction and in the experiment on OPM-2 (16 h) were 0.000382 µM and 0.24 µM, respectively.
For the compound `C[C@@H]1[C@@H](C)CCCC(C2OCC(CO)(N(C)C)CO2)[C@@H]2CC[C@H]2CN2C[C@@]3(CCCc4cc(Cl)ccc43)COc3ccc(cc32)C(=O)NS1(=O)=O` (single isomer, unassigned) [Example 86], the IC50 at Mcl-1/Bim interaction worked out at 0.000448 µM; in the experiment on OPM-2 (Homo sapiens, OPM-2, 16 h), 0.178 µM.
In the case of `C[C@@H]1[C@@H](C)CCC[C@H]([C@H]2O[C@H]3CNC[C@H]3O2)[C@@H]2CC[C@H]2CN2C[C@@]3(CCCc4cc(Cl)ccc43)COc3ccc(cc32)C(=O)NS1(=O)=O` (stereo in doubt) [Example 9, (1S,3′R,6′R,7′R,11′S,12′R)-6-chloro-11′,12′-dimethyl-7′-((2r,3aR,6aS)-tetrahydro-3aH-[1,3]dioxolo[4,5-c]pyrrol-2-yl)-3,4-dihydro-2H,15′H-spiro[naphthalene-1,22′-[20]oxa[13]thia[1,14]diazatetracyclo [14.7.2.0~3,6~.0~19,24~]pentacosa[16,18,24]trien]-15′-one 13′,13′-dioxide], the IC50 came to 0.00049 µM at Mcl-1/Bim interaction and 0.381 µM with OPM-2 (16 h).
With `C[C@@H]1[C@@H](C)CCC[C@H]([C@H]2O[C@H]3CNC[C@H]3O2)[C@@H]2CC[C@H]2CN2C[C@@]3(CCCc4cc(Cl)ccc43)COc3ccc(cc32)C(=O)NS1(=O)=O` (stereo in doubt) [Example 10, (1S,3′R,6′R,7′R,11′S,12′R)-6-chloro-11′,12′-dimethyl-7′-((2r,3aR,6aS)-tetrahydro-3aH-[1,3]dioxolo[4,5-c]pyrrol-2-yl)-3,4-dihydro-2H,15′H-spiro[naphthalene-1,22′-[20]oxa[13]thia[1,14]diazatetracyclo [14.7.2.0~3,6~.0~19,24~]pentacosa[16,18,24]trien]-15′-one 13′,13′-dioxide], the IC50 at Mcl-1/Bim interaction turned out to be 0.00127 µM; in the experiment with OPM-2 (16 h), 1.11 µM.
Consider `C[C@@H]1[C@@H](C)CCC[C@H]([C@H]2O[C@H]3CNC[C@H]3O2)[C@@H]2CC[C@H]2CN2C[C@@]3(CCCc4cc(Cl)ccc43)COc3ccc(cc32)C(=O)NS1(=O)=O` (stereo in doubt) [Example 15, (1S,3′R,6′R,7′R,11′S,12′R)-6-chloro-11′,12′-dimethyl-7′-((2r,3aR,6aS)-tetrahydro-3aH-[1,3]dioxolo[4,5-c]pyrrol-2-yl)-3,4-dihydro-2H,15′H-spiro[naphthalene-1,22′-[20]oxa[13]thia[1,14]diazatetracyclo [14.7.2.0~3,6~.0~19,24~]pentacosa[16,18,24]trien]-15′-one 13′,13′-dioxide], for which the IC50 on Mcl-1/Bim interaction was 0.000765 µM; in the experiment with OPM-2 (16 h), 0.625 µM.
For `CC(=O)N1C[C@@H]2O[C@H]([C@H]3CCC[C@H](C)[C@@H](C)S(=O)(=O)NC(=O)c4ccc5c(c4)N(C[C@@H]4CC[C@H]43)C[C@@]3(CCCc4cc(Cl)ccc43)CO5)O[C@@H]2C1` (stereo in doubt) [Example 16, (1S,3′R,6′R,7′R,11′S,12′R)-7′-((2r,3aR,6aS)-5-acetyltetrahydro-3aH-[1,3]dioxolo[4,5-c]pyrrol-2-yl)-6-chloro-11′,12′-dimethyl-3,4-dihydro-2H,15′H-spiro[naphthalene-1,22′-[20]oxa[13]thia[1,14]diazatetracyclo [14.7.2.0~3,6~.0~19,24~]pentacosa[16,18,24]trien]-15′-one 13′,13′-dioxide], the IC50 at Mcl-1/Bim interaction was determined as 0.000194 µM; in the experiment on OPM-2 (Homo sapiens, OPM-2, 16 h) it was 0.262 µM.
Taken in the same sequence, the figures for `C[C@@H]1[C@@H](C)CCC[C@H]([C@H]2O[C@H]3CN(C)C[C@H]3O2)[C@@H]2CC[C@H]2CN2C[C@@]3(CCCc4cc(Cl)ccc43)COc3ccc(cc32)C(=O)NS1(=O)=O` (stereo in doubt) [Example 24, (1S,3′R,6′R,7′R,11′S,12′R)-6-chloro-11′,12′-dimethyl-7′-((2r,3aR,6aS)-5-methyltetrahydro-3aH-[1,3]dioxolo[4,5-c]pyrrol-2-yl)-3,4-dihydro-2H,15′H-spiro[naphthalene-1,22′-[20]oxa[13]thia[1,14]diazatetracyclo [14.7.2.0~3,6~.0~19,24~]pentacosa[16,18,24]trien]-15′-one 13′,13′-dioxide] were 0.000709 µM and 0.532 µM.
As to `C[C@@H]1[C@@H](C)CCC[C@H]([C@H]2O[C@H]3CNC[C@H]3O2)[C@@H]2CC[C@H]2CN2C[C@@]3(CCCc4cc(Cl)ccc43)COc3ccc(cc32)C(=O)NS1(=O)=O` (stereo in doubt) [Example 35, (1S,3′R,6′R,7′R,11′S,12′R)-6-chloro-11′,12′-dimethyl-7′-((2r,3aR,6aS)-tetrahydro-3aH-[1,3]dioxolo[4,5-c]pyrrol-2-yl)-3,4-dihydro-2H,15′H-spiro[naphthalene-1,22′-[20]oxa[13]thia[1,14]diazatetracyclo [14.7.2.0~3,6~.0~19,24~]pentacosa[16,18,24]trien]-15′-one 13′,13′-dioxide], the figures for the IC50 at Mcl-1/Bim interaction and in the experiment on OPM-2 (16 h) were 0.000829 µM and 0.304 µM, respectively.
Turning to `CC[C@@H]1CCCC[C@H]([C@H]2OC[C@@H](N(C)C)CO2)C2CC[C@H]2CN2C[C@@]3(CCCc4cc(Cl)ccc43)COc3ccc(cc32)C(=O)NS1(=O)=O` (stereo in doubt) [Example 73, (1S,3′R,6′S,7′S,12′R)-6-chloro-7′-(cis-5-(dimethylamino)-1,3-dioxan-2-yl)-12′-ethyl-3,4-dihydro-2H,15′H-spiro[naphthalene-1,22′-[20]oxa[13]thia[1,14]diazatetracyclo [14.7.2.0~3,6~.0~19,24~]pentacosa[16,18,24]trien]-15′-one 13′,13′-dioxide], the results for the IC50 at Mcl-1/Bim interaction and with OPM-2 (16 h) were 0.000657 µM and 0.915 µM, respectively.
Take `CC[C@@H]1CCCC[C@H]([C@H]2OC[C@@H](N(C)C)CO2)C2CC[C@H]2CN2C[C@@]3(CCCc4cc(Cl)ccc43)COc3ccc(cc32)C(=O)NS1(=O)=O` (stereo in doubt) [Example 74, (1S,3′R,6′S,7′S,12′R)-6-chloro-7′-(cis-5-(dimethylamino)-1,3-dioxan-2-yl)-12′-ethyl-3,4-dihydro-2H,15′H-spiro[naphthalene-1,22′-[20]oxa[13]thia[1,14]diazatetracyclo [14.7.2.0~3,6~.0~19,24~]pentacosa[16,18,24]trien]-15′-one 13′,13′-dioxide]: the IC50 worked out at 0.000196 µM at Mcl-1/Bim interaction and 0.108 µM with OPM-2 (16 h).
As to `C[C@H]1CCC[C@H]([C@H]2OC[C@@H](N(C)C)CO2)[C@@H]2CC[C@H]2CN2C[C@@]3(CCCc4cc(Cl)ccc43)COc3ccc(cc32)C(=O)NS(=O)(=O)C1` (stereo in doubt) [Example 77], the IC50 worked out at 0.00265 µM at Mcl-1/Bim interaction and 0.595 µM in the experiment with OPM-2 (Homo sapiens, OPM-2, 16 h).
As to `C[C@H]1CCC[C@H]([C@H]2OC[C@@H](N(C)C)CO2)[C@@H]2CC[C@H]2CN2C[C@@]3(CCCc4cc(Cl)ccc43)COc3ccc(cc32)C(=O)NS(=O)(=O)C1` (stereo in doubt) [Example 78], the IC50 was found to be 0.00281 µM at Mcl-1/Bim interaction and 0.599 µM in the experiment with OPM-2 (16 h).
